For 26 molecules, Papp A→B and solubility results are on record in ChEMBL document CHEMBL2163201, “Discovery of novel pyrrolopyridazine scaffolds as transient receptor potential vanilloid (TRPV1) antagonists” (Bioorg Med Chem Lett, 2012).

Converted amounts (≈) assume the structure as drawn. Some results are limits rather than exact numbers.

The first data set can be described thus: Apparent permeability across apical to basolateral side of human Caco2 cells. In kind it is ADME, cell-based. The conditions noted are these: Caco-2. (In general: Caco-2 cells form a polarised layer with tight junctions and transporters.)
The term Papp A→B denotes how fast a substance crosses the layer from the apical side. Turning to `CCN(CCO)C(=O)c1cc2cccnn2c1-c1cccc(C(F)(F)F)c1`, the Papp A→B was found to be 42 ×10⁻⁶ cm/s.
On to `CCCN(CCO)C(=O)c1cc2ccccn2c1-c1ccccc1`, for which the apical-to-basolateral permeability (Papp A→B) came out at 60 ×10⁻⁶ cm/s.
The same measure, in the same setting: as for `CCN(CCO)C(=O)c1cc2ccccn2c1-c1cccc(OC)n1`, the figure is 56 ×10⁻⁶ cm/s; as for `CCN(CCO)C(=O)c1cc2ccccn2c1-c1cccc(OC)c1`, 54 ×10⁻⁶ cm/s; as for `COc1cccc(-c2c(C(=O)N3CCCCC3CO)cc3ccccn23)c1` (stereo unspecified), 58 ×10⁻⁶ cm/s.

The nature of a further data set: Equilibrium solubility of the compound in DMSO preincubated for 4 hrs. The data set is classed as physicochemical.
Conditions: not given
One may read the solubility as the dissolved amount per volume that the medium holds. Low readings indicate a poorly soluble substance, high ones a readily soluble substance. `CCN(CCO)C(=O)c1cc2cccnn2c1-c1cccc(C(F)(F)F)c1`: the concentration in solution (solubility at 4 h) was 200 µM (≈ 75.5 µg/mL).
Consider `O=C(c1cc2cccnn2c1-c1cccc(C(F)(F)F)c1)N1CCC[C@H]1CO`, for which the solubility at 4 h amounted to 360 µM (≈ 140 µg/mL).
In turn, `CCCN(CCO)C(=O)c1cc2ccccn2c1-c1ccccc1` showed a solubility at 4 h of 280 µM (≈ 90.3 µg/mL).
Consider `N#Cc1cccc(-c2c(C(=O)N3CCCCC3CO)cc3ccccn23)c1` (stereo unspecified), for which the solubility at 4 h was determined as 250 µM (≈ 89.9 µg/mL).
Molecule `CCN(CCO)C(=O)c1nc2ccccn2c1-c1cccc(C(F)(F)F)c1` came in with a solubility at 4 h of 270 µM (≈ 102 µg/mL).
The molecule `CCN(CCO)C(=O)c1cc2cc(OC)cnn2c1-c1cccc(C(F)(F)F)c1` returned a solubility at 4 h of 25 µM (≈ 10.2 µg/mL).
Turning to `COc1ccc(-c2c(C(=O)N3CCC[C@H]3CO)cc3cccnn23)cc1`, the solubility at 4 h was greater than 400 µM.
In the case of `CCN(CCO)C(=O)c1cc2ccccn2c1-c1cccc(OC)n1`, the solubility at 4 h amounted to 190 µM (≈ 64.5 µg/mL).
For the molecule `CCN(CCO)C(=O)c1cc2c(C)ccnn2c1-c1cccc(C(F)(F)F)c1`, the solubility at 4 h is 32 µM (≈ 12.5 µg/mL).
With `CCN(CCO)C(=O)c1oc2cccnc2c1-c1cccc(C(F)(F)F)c1`, the solubility at 4 h was greater than 400 µM.
On to `CCN(CCO)C(=O)c1cc2cccnc2n1-c1cccc(C(F)(F)F)c1`, for which the solubility at 4 h was greater than 300 µM.
Consider `CCN(Cc1ccn[nH]1)C(=O)c1cc2cccnn2c1-c1cccc(C(F)(F)F)c1`, for which the solubility at 4 h turned out to be 150 µM (≈ 62 µg/mL).
As to `CCN(CCO)C(=O)c1cc2ccncn2c1-c1cccc(C(F)(F)F)c1`, the concentration in solution (solubility at 4 h) was 240 µM (≈ 90.6 µg/mL). Compared with the last molecule, the solubility at 4 h is about 1.6-fold higher.
For `CCN(CCO)C(=O)c1cc2cccnn2c1-c1cccc(OC)c1`, the solubility at 4 h is 340 µM (≈ 115 µg/mL).
`CCN(CCO)C(=O)c1cc2cccnn2c1-c1cccc(C(=O)Nc2ccccc2)c1` showed a solubility at 4 h of 25 µM (≈ 10.7 µg/mL).
On to `CCN(CCO)C(=O)c1cc2cc(C)cnn2c1-c1cccc(C(F)(F)F)c1`, for which the solubility at 4 h was found to be 190 µM (≈ 74.4 µg/mL).
Same read-out and setting: the result for `CCN(CCO)C(=O)c1cc2cccnn2c1-c1ccc(C(F)(F)F)cc1` reads 22 µM (≈ 8.3 µg/mL); that for `CCN(CCO)C(=O)c1cc2ccccn2c1-c1cccc(C)c1`, 260 µM (≈ 83.8 µg/mL).
As to `CCN(CCO)C(=O)c1cc2ccccn2c1-c1cccc(C(F)(F)F)n1`, the solubility at 4 h was 360 µM (≈ 136 µg/mL).
With `CCN(CCO)C(=O)c1cc2ccccn2c1-c1cccc(OC)c1`, the concentration in solution (solubility at 4 h) was 150 µM (≈ 50.8 µg/mL). This solubility at 4 h is about 2.4-fold lower than that of the molecule before.
Turning to `COc1cccc(-c2c(C(=O)N3CCCCC3CO)cc3ccccn23)c1` (stereo unspecified), the concentration in solution (solubility at 4 h) was 260 µM (≈ 94.8 µg/mL).
The same measure, in the same setting: as for `CCN(CCO)C(=O)c1cc2cccnn2c1-c1cccc(C)c1`, the figure is 330 µM (≈ 107 µg/mL); as for `CCN(CCO)C(=O)c1cc2cccnn2c1Cc1cccc(C(F)(F)F)c1`, 170 µM (≈ 66.5 µg/mL); as for `CCN(CCO)C(=O)c1nc2cccnc2n1-c1cccc(C(F)(F)F)c1`, 24 µM (≈ 9.08 µg/mL).
On the same count and under the same terms, as for `CCN(CCO)C(=O)c1cc2ccc(C)nn2c1-c1cccc(C(F)(F)F)c1`, the figure is 28 µM (≈ 11 µg/mL); as for `O=C(Cc1cc2cccnn2c1-c1cccc(C(F)(F)F)c1)N1CCC[C@@H]1CO`, 220 µM (≈ 88.7 µg/mL).
